Data: patent US20080286387A1, “Standardized method for recovering enriched Indian date extract (IDE), properties of IDE and applications thereof” (priority 2007, published 2008)

System: 5-alpha-reductases
Experiment: 5-alpha-reductase inhibition
Assay type: biochemical
Settings: at a workable concentration of 9 μg/ml; FIG. 4

- inhibition of 5-alpha-reductase: ≤ 13%
Compound: CC(C)(C)NC(=O)[C@H]1CC[C@H]2[C@@H]3CC[C@H]4NC(=O)C=C[C@]4(C)[C@H]3CC[C@]12C [Finasteride]
